Test results as given in ChEMBL document CHEMBL1201862, “PubChem BioAssay data set” (2004).
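Method: 48-hour compound exposure of cells in 96-well plates, five concentrations, linear interpolation of endpoints. The concentration for 50% growth inhibition is given as GI50.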 Activity calls are given as the source filed them. No stated cut-off is given here; in the data, active = GI50 up to about 1.1 µM and inactive = higher.

What was measured:
Test in all cases: growth of human tumour cells (NCI), 48 h
UACC-257 = test system: UACC-257
LOX IMVI = test system: LOX IMVI
SNB-75 = test system: SNB-75
TK-10 = test system: TK-10
A498 = test system: A498
RXF 393 = test system: RXF 393
OVCAR-3 = test system: OVCAR-3
HCT-15 = test system: HCT-15
HT-29 = test system: HT-29
NCI/ADR-RES = test system: NCI/ADR-RES
HCC 2998 = test system: HCC 2998
T47D = test system: T47D
SR = test system: SR
SF-268 = test system: SF-268
OVCAR-5 = test system: OVCAR-5
Malme-3M = test system: Malme-3M
COLO 205 = test system: COLO 205
Hs-578T = test system: Hs-578T
U-251 = test system: U-251
A549 = test system: A549

Row | SMILES | GI50 (UACC-257) | GI50 (LOX IMVI) | GI50 (SNB-75) | GI50 (TK-10) | GI50 (A498) | GI50 (RXF 393) | GI50 (OVCAR-3) | GI50 (HCT-15) | GI50 (HT-29) | GI50 (NCI/ADR-RES) | GI50 (HCC 2998) | GI50 (T47D) | GI50 (SR) | GI50 (SF-268) | GI50 (OVCAR-5) | GI50 (Malme-3M) | GI50 (COLO 205) | GI50 (Hs-578T) | GI50 (U-251) | GI50 (A549)
1 | O=C1CSC(c2cccs2)N1c1nc2cc3sc(N4C(=O)CSC4c4cccs4)nc3cc2s1 (stereo not given) | > 50 µM (inactive) | 29.5 µM (inactive) | > 50 µM (inactive) | > 50 µM (inactive) | > 50 µM (inactive) | > 50 µM (inactive) | > 50 µM (inactive) | 33.4 µM | 11.9 µM (inactive) | 43.1 µM (inactive) | > 50 µM (inactive) | > 50 µM (inactive) | 5.45 µM (inactive) | > 50 µM (inactive) | > 50 µM (inactive) | > 50 µM (inactive) | 1.21 µM (inactive) | > 50 µM (inactive) | 40.9 µM (inactive) | 4.23 µM (inactive)
2 | O=C(O)c1c2c(c(O)c3c1CN(C1CCCCC1)CO3)OCN(C1CCCCC1)C2 | > 100 µM (inactive) | 21.3 µM (inactive) | > 100 µM (inactive) | > 100 µM (inactive) | > 100 µM (inactive) | 63.4 µM (inactive) | 69 µM (inactive) | > 100 µM | > 100 µM (inactive) | > 100 µM (inactive) | 21.6 µM (inactive) | > 100 µM (inactive) | 27.2 µM (inactive) | 46.3 µM (inactive) | > 100 µM (inactive) | > 100 µM (inactive) | > 100 µM (inactive) | > 100 µM (inactive) | 42.6 µM (inactive) | > 100 µM (inactive)
3 | CC(=O)Nc1ccc2c3c(cc(O)c2c1)N(C(=O)CCCCC(=O)N1CC(CCl)c2c1cc(O)c1cc(NC(C)=O)ccc21)CC3CCl (stereo not given) | 0.181 µM (active) | 0.0313 µM (active) | < 0.0395 µM (active) | 2.19 µM (inactive) | 0.127 µM (active) | 0.153 µM (active) | 0.209 µM (active) | 12.9 µM | 0.301 µM (active) | 21.3 µM (inactive) | 0.21 µM (active) | 0.0129 µM (active) | < 0.01 µM (active) | < 0.0141 µM (active) | 1.37 µM (inactive) | 0.149 µM (active) | 0.102 µM (active) | 0.423 µM (active) | 0.0285 µM (active) | 0.147 µM (active)
4 | Cc1ccccc1OC(C)C(=O)NN1C(=O)CC(=O)NC1=S (stereo not given) | > 100 µM (inactive) | > 100 µM (inactive) | > 100 µM (inactive) | > 100 µM (inactive) | > 100 µM (inactive) | > 100 µM (inactive) | > 100 µM (inactive) | > 100 µM | > 100 µM (inactive) | > 100 µM (inactive) | > 100 µM (inactive) | 23.9 µM (inactive) | 49.1 µM (inactive) | > 100 µM (inactive) | > 100 µM (inactive) | > 100 µM (inactive) | > 100 µM (inactive) | > 100 µM (inactive) | > 100 µM (inactive) | 68.9 µM (inactive)
5 | Cc1n(-c2ccccc2)c2c([n+]1Cc1ccc([N+](=O)[O-])cc1)C(=O)c1ccccc1C2=O | 1.69 µM (inactive) | 1.75 µM (inactive) | 3.69 µM (inactive) | 7.66 µM (inactive) | 12.2 µM (inactive) | 7.66 µM (inactive) | 0.182 µM (active) | 9.12 µM | 2.38 µM (inactive) | 2.05 µM (inactive) | 2.26 µM (inactive) | 1.64 µM (inactive) | 1.72 µM (inactive) | 1.75 µM (inactive) | 2.02 µM (inactive) | 1.67 µM (inactive) | 1.59 µM (inactive) | 1.78 µM (inactive) | 1.75 µM (inactive) | 3.56 µM (inactive)
6 | C/C(=N\NC(=[Se])N1CCN(c2ccccn2)CC1)c1ccccn1 | 0.01 µM (active) | 0.0268 µM (active) | 4.7 µM (inactive) | 7.38 µM (inactive) | 4.51 µM (inactive) | 0.0352 µM (active) | 0.01 µM (active) | 0.01 µM | 0.01 µM (active) | 0.0023 µM (active) | 11.1 µM (inactive) | 0.01 µM (active) | 0.00622 µM (active) | 3.21 µM (inactive) | 5.97 µM (inactive) | 0.297 µM (active) | 0.01 µM (active) | 0.188 µM (active) | 0.00925 µM (active) | 3.72 µM (inactive)
7 | Cc1cc2cc3c(cc2c(-c2ccc([N+](=O)[O-])cc2)n1)OCO3 | 80.2 µM (inactive) | 41.2 µM (inactive) | 19.7 µM (inactive) | 43.9 µM (inactive) | > 100 µM (inactive) | 32.7 µM (inactive) | 55.2 µM (inactive) | 26.5 µM | 56.8 µM (inactive) | 44.6 µM (inactive) | 74 µM (inactive) | 34.9 µM (inactive) | 27.9 µM (inactive) | 34.6 µM (inactive) | > 100 µM (inactive) | 61.1 µM (inactive) | 37.7 µM (inactive) | 23.3 µM (inactive) | 23.7 µM (inactive) | 25.8 µM (inactive)
8 | Fc1cc(C2=C[C@H](c3ccc(Cl)cc3)NC(=S)N2)c(Cl)cc1Cl | 31.6 µM (inactive) | 48.6 µM (inactive) | 37.6 µM (inactive) | 45.1 µM (inactive) | 27.7 µM (inactive) | 31.1 µM (inactive) | 33.1 µM (inactive) | 46.8 µM | 36.5 µM (inactive) | 64.1 µM (inactive) | 23.3 µM (inactive) | 19.2 µM (inactive) | 40.6 µM (inactive) | 65.8 µM (inactive) | > 100 µM (inactive) | > 100 µM (inactive) | 47 µM (inactive) | > 100 µM (inactive) | 29.6 µM (inactive) | 47.3 µM (inactive)
9 | Cc1cc(C)c(C[C@H]2COC(=O)[C@]2(O)Cc2c(C)cc(C)cc2C)c(C)c1 | 17.7 µM (inactive) | 17.8 µM (inactive) | 19.4 µM (inactive) | 21.6 µM (inactive) | 14.6 µM (inactive) | 11.2 µM (inactive) | 15 µM (inactive) | 17.3 µM | 27.9 µM (inactive) | 15.6 µM (inactive) | 13.7 µM (inactive) | 4.67 µM (inactive) | 41.5 µM (inactive) | 14.9 µM (inactive) | 17.1 µM (inactive) | 13.9 µM (inactive) | 18.7 µM (inactive) | 17.7 µM (inactive) | 18.9 µM (inactive) | 15.7 µM (inactive)
10 | Brc1ccc2c(-c3csc(-c4c[nH]c5ccc(Br)cc45)n3)c[nH]c2c1 | 7.94 µM (inactive) | 1.94 µM (inactive) | 10.2 µM (inactive) | 3.94 µM (inactive) | 3.01 µM (inactive) | 3.02 µM (inactive) | 6 µM (inactive) | 3.38 µM | 1.76 µM (inactive) | 4.83 µM (inactive) | 2.32 µM (inactive) | 2.94 µM (inactive) | 3.89 µM (inactive) | 3.6 µM (inactive) | 2.44 µM (inactive) | 5.4 µM (inactive) | 2.88 µM (inactive) | 5.78 µM (inactive) | 4.26 µM (inactive) | 4.2 µM (inactive)
11 | CC1(C)CC(=O)C2=C(C1)OC1(CC2c2ccc(Cl)cc2)CC(c2ccc(Cl)cc2)C2=C(CC(C)(C)CC2=O)O1 (stereo not given) | 17 µM (inactive) | 20.4 µM (inactive) | 17.5 µM (inactive) | 32.4 µM (inactive) | 16 µM (inactive) | 26.1 µM (inactive) | 3.44 µM (inactive) | 9.62 µM | 28.2 µM (inactive) | > 38.5 µM (inactive) | 16.3 µM (inactive) | > 10 µM (inactive) | 4.83 µM (inactive) | 17.9 µM (inactive) | 26.9 µM (inactive) | 15.3 µM (inactive) | 16 µM (inactive) | 16.5 µM (inactive) | 22.5 µM (inactive) | 13.6 µM (inactive)
